According to patent US6617313B1, “Glucopyranoside and process of isolation thereof from pterocarpus marsupium pharmaceutical composition containing the same and use thereof” (Council of Scientific and Industrial Research, priority 2002, dated 2003):

Assays:
pancreatic beta cells = conditions: effect due to regeneration of pancreatic beta cells; claim questioned by Kolb et al and Sheehan et al; cited from earlier work
[1] = hypoglycaemic / anti-diabetic activity of the isolated compound (no test described); conditions: stated without test details

## Oc1cc(O)c2c(c1)O[C@H](c1ccc(O)c(O)c1)[C@H](O)C2 [(−)-epicatechin]
Pancreatic beta cells
  hypoglycemic principle: active hypoglycemic principle

## O=C1c2ccc(O)c(C3OC(CO)C(O)C(O)C3O)c2OC1(O)Cc1ccc(O)cc1 [formula 1, 2,6-dihydroxy-2-(P-hydroxybenzyl)-3(2H)benzofuran-7-C-β-D-glucopyranoside]
[1]
  hypoglycaemic activity: shows hypoglycaemic activity
[1]; listed as 2,6-dihydroxy-2-(P-hydroxybenzyl)-3(2H)benzofuran-7-C-β-D-glucopyranoside
  anti-diabetic activity: possesses anti-diabetic activity
[1]; listed as 2,6-dihydroxy-2-(p-hydroxybenzyl)-3(2H)benzofuran-7-C-β-D-glucopyranoside
  anti-diabetic activity: antidiabetic activity
other
  melting point: 157 to 158 °C
